Here are results for 2 molecules from PMC4685742 (Nature chemical biology, 2015).

Each structure is given as a SMILES string.

The target in test [1] is T1, iridoid synthase (CrISY) (Catharanthus roseus, UniProt K7WDL7, D87N). Put plainly: co-crystal structure at […] Å. It counts as biochemical.
Test [2] concerns the target T1, iridoid synthase (CrISY). Put plainly: co-crystal structure at […] Å. In kind it is binding.
Test [3] addresses T2, iridoid synthase (CrISY) G150A (Catharanthus roseus, UniProt K7WDL7, D87N/G150A).
T2 sequence (K7WDL7 23-388 D87N/G150A): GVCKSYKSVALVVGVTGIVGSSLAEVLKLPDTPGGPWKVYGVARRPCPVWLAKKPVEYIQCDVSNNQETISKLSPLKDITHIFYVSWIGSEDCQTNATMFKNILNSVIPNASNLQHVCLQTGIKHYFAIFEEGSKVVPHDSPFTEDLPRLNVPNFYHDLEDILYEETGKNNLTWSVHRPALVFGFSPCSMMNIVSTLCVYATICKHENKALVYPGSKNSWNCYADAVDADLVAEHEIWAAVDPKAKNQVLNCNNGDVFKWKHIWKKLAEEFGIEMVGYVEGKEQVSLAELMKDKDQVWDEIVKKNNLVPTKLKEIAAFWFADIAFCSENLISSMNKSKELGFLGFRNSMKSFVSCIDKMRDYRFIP
Put plainly: co-crystal structure. It counts as binding.

T1 sequence (K7WDL7 23-388 D87N): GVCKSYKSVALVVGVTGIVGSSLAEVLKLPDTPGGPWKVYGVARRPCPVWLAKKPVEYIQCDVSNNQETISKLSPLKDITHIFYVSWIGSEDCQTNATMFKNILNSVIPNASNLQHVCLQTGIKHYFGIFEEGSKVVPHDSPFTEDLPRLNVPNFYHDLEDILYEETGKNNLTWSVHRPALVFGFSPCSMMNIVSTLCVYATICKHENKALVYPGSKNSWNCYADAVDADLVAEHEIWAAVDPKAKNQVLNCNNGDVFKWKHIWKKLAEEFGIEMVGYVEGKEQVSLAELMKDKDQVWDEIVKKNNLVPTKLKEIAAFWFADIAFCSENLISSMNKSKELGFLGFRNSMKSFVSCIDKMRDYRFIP

For orientation: Ki means the equilibrium dissociation constant of an inhibitor or competing ligand from its target. In turn, `CC(C)=CCC/C(C)=C/C(=O)O` [GEA, geranic acid] yielded a Ki in test [1] of about 4 µM. As to `NC(=O)c1ccc[n+]([C@@H]2O[C@H](COP(=O)(O)OP(=O)(O)OC[C@H]3O[C@@H](n4cnc5c(N)ncnc54)[C@H](OP(=O)(O)O)[C@@H]3O)[C@@H](O)[C@H]2O)c1` [NADP+], the “co-crystal structure at 1.40 Å” value in test [2] is “CrISY’s structure was solved in its apo form and with NADP^+ bound (PDB codes 5DCW and 5DCU, respectively)”. Also, the co-crystal structure entry in test [3] is “The structure of CrISY^G150A was solved with NADP^+ bound (PDB code 5DCY)”.
